In patent US20130259830A1, “CRTH2 MODULATORS” (Ironwood Pharmaceuticals, Inc., priority 2010, published 2013):

How the values were obtained:
CRTH2 [1] = molecular target: T1, CRTH2 (Homo sapiens, UniProt Q9Y5Y4); experiment: DPBS CD11b antagonist assay (CD11b expression in eosinophils challenged with 15R-Methyl-PGD2); assay type: cell-based; settings: polymorphonuclear cells in PBS with CaCl2/MgCl2; agonist 15R-Methyl-PGD2 10 nM; eosinophils gated by flow cytometry
T1 construct: endogenous in cells; host or cells: eosinophils in human whole blood
T1 sequence (Q9Y5Y4 1-395): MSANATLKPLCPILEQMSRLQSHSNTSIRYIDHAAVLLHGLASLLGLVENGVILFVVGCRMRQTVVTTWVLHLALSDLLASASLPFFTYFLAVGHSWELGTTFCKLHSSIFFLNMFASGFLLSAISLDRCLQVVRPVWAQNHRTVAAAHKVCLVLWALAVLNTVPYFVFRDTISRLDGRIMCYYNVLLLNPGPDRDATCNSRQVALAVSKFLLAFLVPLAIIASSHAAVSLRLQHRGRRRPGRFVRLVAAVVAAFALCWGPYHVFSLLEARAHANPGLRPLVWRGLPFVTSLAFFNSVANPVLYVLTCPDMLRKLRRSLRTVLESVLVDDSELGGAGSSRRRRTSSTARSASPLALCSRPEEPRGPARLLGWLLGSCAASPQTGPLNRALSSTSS
Experimental: DPBS CD111b Antagonist Assay.
The potential CRTH2 antagonist, activity of certain compounds was tested using a CD11b expression assay using essentially the method described by Monneret et al. (J Pharmacol Exp Ther 304:349-55, 2003). Briefly, polymorphonuclear cells (0.5 ml; 10^6/ml cells) in PBS containing 0.9 mM CaCl2 and 0.5 mM MgCl2) were preincubated with various concentrations of test compounds at room temperature for 10 minutes before they were challenged with the agonist 15R-Methyl-PGD2 (10 nM). The incubations were terminated by the addition of ice-cold FACSFlow (BD Biosciences; Cat#342003) and centrifugation (400 g for 5 minutes at 4° C.). The cells were then incubated for 30 minutes at 4° C. with a mixture of PE-labeled mouse anti-human VLA-4 (5 μl; BD Biosciences) and FITC-labeled mouse anti-human CD11b (10 μl; Beckman Coulter). The cells were then incubated with Optilyse C (0.25 ml; Beckman Coulter) for 15 minutes, centrifuged, and then fixed in PBS (0.4 ml; calcium and magnesium free) containing 1% formaldehyde. The distribution of fluorescence intensities among 60,000 cells was measured by flow cytometry. Eosinophils were gated out on the basis of their granularity (high side scatter) and labeling with VLA-4 (PE fluorescence). CD11b was then measured in the eosinophil region on the basis of fluorescence due to FITC. All data were corrected for the value obtained for the corresponding isotope control antibody.

CRTH2 [2] = molecular target: T1, CRTH2; experiment: Human whole blood CD11b antagonist assay (CD11b expression in eosinophils challenged with 15-R-methyl-PGD2); assay type: cell-based; settings: 37° C. 10 minutes preincubation, agonist 15R-Methyl-PGD2 10 nM, eosinophils gated by flow cytometry
Experimental: Human Whole Blood […] Antagonist Assay (Modified from Nicholson, et al. Pulmonary Pharmacology and Therapeutics: 20 (2007); 52-59).
The potential CRTH2 antagonist activity of certain compounds was tested in human whole blood using an assay that tests the ability of the compounds to block the CD11b expression in eosinophils by 15-R-methyl-PGD2. A CRTH2 antagonist should block CD11b expression by subsequently added 15-Methyl-PGD2. Human whole blood (200 μL) was incubated at 37° C. for 10 minutes in the presence of various concentrations of test compounds before being challenged with the agonist 1-5R-Methyl-PGD2 (10 nM). Reactions were terminated by the addition of ice-cold PBS+0.5% BSA+2 mM EDTA (1 mL) and centrifugation (300×g for 5 minutes at 4° C.) Cells were then incubated at 4° C. for 10 min in the presence of human IgG. Cells were then incubated for 30-45 min with a mixture of PE-Cy5-labeled mouse anti-human CD16 (10 ul; BD Biosciences) and FITC-labeled mouse anti-human CD11b (10 μL; Beckman Coulter.) After rinsing (1 mL ice-cold PBS+0.5% BSA+2 mM EDTA), red blood cells were lysed by the addition of 1 mL ice-cold H2O to the cell pellet for 30 sec-1 min immediately followed by the addition of 3.5% NaCl (300 μL.) Cells were then rinsed (2×−1 ml ice cold PBS+0.5% BSA+2m MEDTA) and fixed in PBS containing 1% formaldehyde. The distribution of fluorescence intensities was measured by flow cytometry. Eosinophils were gated out on the basis of their granularity (high side scatter) and absence of CD-16. CD11b was then measured on this eosinophil population on the basis of fluorescence due to FITC.

IC50 (CRTH2 [1]) [nM]	IC50 (CRTH2 [2]) [nM]	SMILES
5 to 20	500 to 3000	Cc1c(Cc2ccccc2N(C)S(=O)(=O)c2ccc(C(C)C)cc2)c2c(n1CC(=O)O)CC(C)(C)CC2=O [Compound I-34, 2-(3-(2-(4-Isopropyl-N-methylphenylsulfonamido)benzyl)-2,6,6-trimethyl-4-oxo-4,5,6,7-tetrahydro-1H-indol-1-yl)acetic acid]
1 to 5	500 to 3000	CCN(c1ccccc1Cc1c2c(n(CC(=O)O)c1C)CC(C)(C)CC2=O)S(=O)(=O)c1ccc(C)cc1 [Compound I-38, 2-(3-(2-(N-Ethyl-4-methylphenylsulfonamido)benzyl)-2,6,6-trimethyl-4-oxo-4,5,6,7-tetrahydro-1H-indol-1-yl)acetic acid]
100 to 500	> 3000	Cc1ccc(S(=O)(=O)N(C)c2cccc(Cc3c4c(n(CC(=O)O)c3C)CC(C)(C)CC4=O)c2)cc1 [Compound I-45, 2-(3-(3-(N,4-Dimethylphenylsulfonamido)benzyl)-2,6,6-trimethyl-4-oxo-4,5,6,7-tetrahydro-1H-indol-1-yl)acetic acid]

Further lines, the compound ahead of its results:

SMILES	IC50 (CRTH2 [1]) [nM]	IC50 (CRTH2 [2]) [nM]
COc1ccc(S(=O)(=O)c2ncccc2Cc2c3c(n(CC(=O)O)c2C)CC(C)(C)CC3=O)cc1F [Compound I-21, 2-(3-((2-(3-Fluoro-4-methoxyphenylsulfonyl)pyridin-3-yl)methyl)-2,6,6-trimethyl-4-oxo-4,5,6,7-tetrahydro-1H-indol-1-yl)acetic acid]	< 1	20 to 100
Cc1c(Cc2cccnc2S(=O)(=O)c2ccc(F)cc2F)c2c(n1CC(=O)O)CC(C)(C)CC2=O [Compound I-19, 2-(3-((2-(2,4-Difluorophenylsulfonyl)pyridin-3-yl)methyl)-2,6,6-trimethyl-4-oxo-4,5,6,7-tetrahydro-1H-indol-1-yl)acetic acid]	1 to 5	20 to 100
CCOC(=O)Cn1c(C)c(Cc2cccnc2S(=O)(=O)c2ccc(C)cc2)c2c1CC(C)(C)CC2=O [Compound I-16, Ethyl 2-(2,6,6-trimethyl-4-oxo-3-((2-tosylpyridin-3-yl)methyl)-4,5,6,7-tetrahydro-1H-indol-1-yl)acetate]	20 to 100	500 to 3000
